tested on: HIV; experiment: Inhibitory activity for HIV infection (protection of HIV-infected MT-4 cells from death); assay type: cell-based; conditions: 5 days incubation at 37° C., concentration preventing the death of 50% of the MT-4 cells
Procedure: Inhibitory activity for HIV infection
(§1) In RPMI 1640 DM culture medium containing 20 mM of Hepes buffer solution, 10% fetal bovine serum and 20 μg/ml of gentamycin, 3×10^4 MT-4 cells (human T cell clone which is destroyed by the infection of HIV) were infected with HIV in an amount of 100 times as large as expected to cause 50% infection of the cells. Immediately thereafter, a predetermined amount of sample was added to the culture medium using 50 mg/ml sample solutions in dimethyl sulfoxide and the cells were cultured at 37° C.
(§2) After 5 days of incubation, the number of existing cells was counted to determine the concentration of the compound for preventing the death of 50% of the MT-4 cells. Separately, MT-4 cells were cultured in the same way as above except that they were not infected with HIV to determine the concentration of the compound at which 50% of the MT-4 cells were destroyed.

Molecule	IC50 [nM]
1-(4-hydroxybutyl) -6-phenylthiothymine [Compound 31]	13000
1-(methylthiomethyl)-6-phenylthiothymine [Compound 32]	1200
1-[(2-acetoxyethoxy)methyl]-6-phenylthiothymine [Compound 2]	6700
1-[(2-phenylcarbamoyloxyethoxy) methyl]-6-m-tolylthiothymine [Compound 16]	21000
1-butyl-5-ethyl-6-phenylthiouracil [Compound 252]	16
1-ethoxymethyl-5-ethyl-6-phenylthiouracil [Compound 247]	16
COCn1c(Sc2ccccc2)c(C)c(=O)[nH]c1=O [Compound 22, 1-(methoxymethyl)-6-phenylthiothymine]	2100

same assay, conditions: Human immunodeficiency virus 1, MT4, 120 h, 5 days incubation at 37° C., concentration preventing the death of 50% of the MT-4 cells

Molecule	IC50 [nM]
CC(=O)OCCOCn1c(Sc2ccccc2)c(C)c(=O)[nH]c1=S [Compound 1, 1-[(2-acetoxyethoxy)methyl]-6-phenylthio-2-thiothymine]	2800
CCOCn1c(Sc2ccccc2)c(CC)c(=O)[nH]c1=S [Compound 358, 1-ethoxymethyl-5-ethyl-6-phenylthio-2-thiouracil]	26
CCOCn1c(Cc2ccccc2)c(CC)c(=O)[nH]c1=O [Compound 472, 6-benzyl-1-ethoxymethyl-5-ethyluracil]	41

tested on: MT-4 cells; experiment: Cytotoxicity to MT-4 cells not infected with HIV; assay type: cell-based; conditions: 5 days incubation, concentration at which 50% of the MT-4 cells were destroyed
Procedure: as §1, §2

Molecule	50% cytotoxic concentration to MT-4 cells [µM]
1-(4-hydroxybutyl) -6-phenylthiothymine [Compound 31]	249

Source: patent publication USRE37979E1, “Pyrimidine derivatives and anti-viral agent containing the same as active ingredient thereof” (priority 1989, dated 2003)
